Results on 2 compounds are retold here after patent US8722714B2, “Oxazolidine derivatives as NMDA antagonists” (The Honk Kong University of Science and Technology, priority 2008, dated 2014).

One data set has as its target T1, Adenosine A1 (Homo sapiens, UniProt P30542).
T1 construct: CEREP, France (contract assay, High-throughput Profile)
T1 sequence (P30542 1-326): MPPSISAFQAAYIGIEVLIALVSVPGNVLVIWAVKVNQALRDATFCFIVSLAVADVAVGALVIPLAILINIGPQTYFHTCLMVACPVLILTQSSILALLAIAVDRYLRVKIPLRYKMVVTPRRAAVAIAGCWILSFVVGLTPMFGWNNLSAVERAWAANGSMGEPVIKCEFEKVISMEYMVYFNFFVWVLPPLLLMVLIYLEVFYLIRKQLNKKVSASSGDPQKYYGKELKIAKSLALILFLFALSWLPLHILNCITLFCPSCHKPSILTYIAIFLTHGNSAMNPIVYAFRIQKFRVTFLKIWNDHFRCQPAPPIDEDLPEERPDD
The data set is described as follows: Ligand binding assay (High-throughput Profile, CEREP). The protocol:
(§1) To determine the pharmacological profile and potential targets of LC-02, 80 binding assays were performed (High-throughput Profile, CEREP, France). LC-02 was evaluated at a single concentration in these specific binding assays. […] A cutoff of 25% is considered as a moderate effect.
(§2) Compound LC-02 (10 μM) was subjected to ligand binding assays with human A3 and rat kappa receptor overexpressing cells. Results are expressed as a percent of control specific agonist response [100-(measured specific response/control specific agonist response)×100] obtained in the presence of LC-02.

Another data set has as its target T2, Adenosine A2A (Homo sapiens, UniProt P29274).
T2 construct: CEREP, France (contract assay, High-throughput Profile)
Described as above. The protocol:
as §1, §2

The next data set concerns the target opioid kappa receptor (Rattus norvegicus, UniProt P34975). Described as above. The protocol: as §1, §2
The next data set concerns the target T3, Opioid (mu) (Homo sapiens, UniProt P35372).
T3 construct: CEREP, France (contract assay, High-throughput Profile)
Described as above. The protocol:
as §1, §2

A further data set addresses T4, adenosine A3 receptor (Homo sapiens, UniProt P0DMS8).
T4 sequence (P0DMS8 1-318): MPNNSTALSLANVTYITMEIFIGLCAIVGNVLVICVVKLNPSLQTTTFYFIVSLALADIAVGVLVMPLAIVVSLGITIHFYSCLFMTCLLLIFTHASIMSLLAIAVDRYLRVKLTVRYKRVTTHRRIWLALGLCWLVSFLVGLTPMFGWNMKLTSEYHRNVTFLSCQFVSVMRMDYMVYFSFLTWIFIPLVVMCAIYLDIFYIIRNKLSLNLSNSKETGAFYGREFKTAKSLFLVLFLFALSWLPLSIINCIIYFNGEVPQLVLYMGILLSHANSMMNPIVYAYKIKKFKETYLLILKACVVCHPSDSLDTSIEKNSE
The description is as above. As to conditions: [125I]AB-MECA, human A3 overexpressing cells. The protocol:
as §1, §2

The next data set has as its target T5, Opioid (delta) (Homo sapiens, UniProt P41143).
T5 construct: CEREP, France (contract assay, High-throughput Profile)
The data set is described as above. The protocol:
as §1, §2

The subject of a further data set is AKT. The data set is described as follows: Western blot detection of AKT phosphorylation in rat cortical neurons. Particulars: 500 μM; rat cortical neurons 11 DIV. It is filed as cell-based. The protocol:
(§3) Embryonic day 18 Sprague Dawley rat pups were decapitated, their brains removed, and the cortices were isolated. Tissues were triturated and isolated neurons were plated onto 60 mm plate and cultured with Neurobasal medium supplemented with 2% B27 (Invitrogen). Experiments were performed after 10-12 days in vitro (DIV). Cultured cells were stimulated with a test compound or vehicle control (DMSO) for different time intervals and then lysed with RIPA buffer including protease inhibitors. Cell lysates were stored at −80° C. before use. Before being loaded, the lysates were heated to 95° C. for 10 min, vortexed and centrifuged for 7 min at 15,000×g. Supernatants were electrophoresed on 10% SDS-polyacrylamide gel and transblotted to nitrocellulose membrane. The membranes were washed with 5% (w/v) powdered milk dissolved in PBS with 0.1% Triton X-100, followed by incubation at 4° C. overnight with rabbit polyclonal against phospho-ERK or phosphor-AKT (1:1000, Cell Signaling Technology). Next, the membranes were washed and incubated with horseradish peroxidase (HRP)-conjugated secondary antibodies. The signal was visualized using ECL Western Blotting Kit. Blots were stripped and probed for total ERK or AKT expression. […]
(§4) Western blot analysis was performed on the total cell lysates. Antibodies against phospho-ERK1/2 and phospho-AKT were used and detected with HRP conjugated secondary antibodies. […]
(Immunoblotting shows a protein as a band on a membrane.)

The test system of data set [1] is mice. The data set is described as follows: Open Field Test (OFT). Particulars: 100 mg/kg p.o., 7 times, vs control group. In kind it is in vivo.
The next data set has as its system ERK. The data set is described as follows: Western blot detection of ERK phosphorylation in rat cortical neurons. In kind it is cell-based. Particulars: 500 μM; rat cortical neurons 11 DIV; vs DMSO control. The protocol: as §3, §4
In data set [2] the test system is mice. The data set is described as follows: Forced Swim Test (FST). In kind it is in vivo. As to conditions: 100 mg/kg p.o., 7 times, last 4 min of 6-min swim. From the text:
Outbred male I.C.R. mice of ˜3-4 weeks old weighing 20-22 g were used. The mice had free access to food (rodent chow #2053, 5g/mouse/day) and water. The cage floors were covered with wood shavings and the mice were handled once per week while the cages were cleaned. […] Number of mice per group was ˜10-15. To facilitate adaptation to novel surroundings, mice were transported to the testing area from the core animal facility at least one week prior to testing. All experimental sessions were conducted between 0900 and 1200 hours. Briefly, mice were put into a pyrex cylinder of 30 cm in height and 11.5 cm in diameter with water (10 cm) to a level that they would not be able to touch the bottom. Mice were put into the cylinder for twice, first day 15 min and second day 6 min. The duration of immobility (within the last 4 min in the 6-min time frame) of mice in FST were recorded using Etho-Vision® XT Mobility (Noldus software). The parameters to score the behavior of animals in the FST were fine-tuned by visual inspection. […]
The Forced Swim Test (FST) is a popular animal model for assessing depression. […] The time that the test animal spends in an immobile state in the second trial is measured (immobility time). […]
The task was then performed twice and the duration of time the mice spent in an immobile state during the second trial was measured. […]

Chain of opioid kappa receptor (P34975 whole entry): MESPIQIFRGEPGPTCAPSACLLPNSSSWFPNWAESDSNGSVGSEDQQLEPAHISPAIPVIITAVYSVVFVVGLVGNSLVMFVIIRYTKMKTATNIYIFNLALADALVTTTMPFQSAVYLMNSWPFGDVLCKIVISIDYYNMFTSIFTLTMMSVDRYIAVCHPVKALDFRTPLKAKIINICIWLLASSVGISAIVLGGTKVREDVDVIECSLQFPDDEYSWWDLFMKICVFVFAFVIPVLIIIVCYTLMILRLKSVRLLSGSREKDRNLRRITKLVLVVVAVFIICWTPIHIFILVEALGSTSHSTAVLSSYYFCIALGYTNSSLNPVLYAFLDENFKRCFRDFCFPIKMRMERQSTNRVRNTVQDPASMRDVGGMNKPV
T2 sequence (P29274 whole entry): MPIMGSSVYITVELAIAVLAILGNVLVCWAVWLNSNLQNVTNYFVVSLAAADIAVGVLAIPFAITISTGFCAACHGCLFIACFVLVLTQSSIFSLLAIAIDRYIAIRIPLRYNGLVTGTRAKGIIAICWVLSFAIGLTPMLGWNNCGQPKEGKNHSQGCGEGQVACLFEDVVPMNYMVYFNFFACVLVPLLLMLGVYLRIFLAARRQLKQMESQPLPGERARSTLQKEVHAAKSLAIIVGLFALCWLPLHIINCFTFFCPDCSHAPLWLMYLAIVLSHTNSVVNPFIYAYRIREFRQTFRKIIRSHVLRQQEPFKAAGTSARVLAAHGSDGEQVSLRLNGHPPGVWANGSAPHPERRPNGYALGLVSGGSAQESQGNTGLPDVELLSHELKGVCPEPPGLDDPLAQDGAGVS
T5 sequence (P41143 whole entry): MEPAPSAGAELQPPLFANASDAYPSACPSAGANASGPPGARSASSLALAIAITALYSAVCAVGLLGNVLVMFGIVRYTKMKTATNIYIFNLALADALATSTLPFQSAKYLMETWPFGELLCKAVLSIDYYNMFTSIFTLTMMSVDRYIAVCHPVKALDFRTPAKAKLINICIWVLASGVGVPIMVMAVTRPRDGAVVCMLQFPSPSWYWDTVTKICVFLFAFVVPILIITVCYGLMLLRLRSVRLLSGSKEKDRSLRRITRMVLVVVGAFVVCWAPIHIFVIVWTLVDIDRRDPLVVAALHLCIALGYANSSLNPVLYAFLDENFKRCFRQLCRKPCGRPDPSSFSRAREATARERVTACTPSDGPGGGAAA
T3 sequence (P35372 whole entry): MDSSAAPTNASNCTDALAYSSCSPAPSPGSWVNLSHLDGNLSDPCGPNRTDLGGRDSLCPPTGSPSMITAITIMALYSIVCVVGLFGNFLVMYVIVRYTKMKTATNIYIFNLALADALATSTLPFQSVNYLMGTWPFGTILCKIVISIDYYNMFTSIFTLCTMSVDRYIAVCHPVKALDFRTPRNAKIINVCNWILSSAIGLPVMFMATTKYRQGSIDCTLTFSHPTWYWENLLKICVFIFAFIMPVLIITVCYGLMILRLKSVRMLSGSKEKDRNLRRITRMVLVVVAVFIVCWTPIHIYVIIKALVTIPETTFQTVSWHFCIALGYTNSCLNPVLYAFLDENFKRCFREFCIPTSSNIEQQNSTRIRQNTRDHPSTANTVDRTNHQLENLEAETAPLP

The term inhibition denotes the change of the read-out against control, counted positive when it falls. In the case of `CC[C@H]1N[C@@H](CC(C)C)C(CC)(CC)O1` [LC-02], the inhibition at 10 µM on Adenosine A1 was 5%; at Adenosine A2A, 6%; at opioid kappa receptor ([3H]U 69593, rat kappa receptor overexpressing cells), 30%; at Opioid (mu), 14%; on adenosine A3 receptor it was 30%; at Opioid (delta), 18%. Moreover, the “% of inhibition of ligand binding” value at opioid kappa receptor (10 μM, [3H]U 69593, rat kappa receptor overexpressing cells) stood at 26%. Further, the “phosphorylation of AKT” value in the data set on AKT is on record as “phosphorylated within 5-15 min”. Further, the “total distance travelled in the open field” value in the data set on mice [1] is “did not significantly differ”. The “phosphorylation of ERK” value in the data set with ERK was “induced phosphorylation of ERK after a 15-min treatment period and persisted to 60 min”.
In the case of `CCCC1(CCC)O[C@@H](CC)N[C@H]1CC(C)C` [LC-06], in the data set on mice [2], the “duration of immobility (immobility time)” value is “Reduces the Duration of Immobility”.
